How the values were obtained:
[1] = system: Phosphodiesterase (PDE) von Humanthrombozyten; experiment: PDE inhibition (PDE assay), enzyme from human platelets, 3H-cAMP substrate; format: biochemical; conditions: 1 µmol/l 3H-cAMP as substrate, linear regression, read-out: PDE-Hemmung (IC50 in µmol/l) Thrombozyten
From the text: (§1) Beispielsweise wurden die Verbindungen • A = 4,7-Dimorpholino-6-phenyl-2-piperazino-pteridin, • B = 4-Morpholino-7-(1-oxidothiomorpholino)-2-piperazino-6-phenyl-pteridin, • C = 7-Benzylamino-6-phenyl-2-piperazino-4-thiomorpholino- pteridin, • D = 7-Dimethylamino-6-phenyl-2-piperazino-4-pyrrolidino- pteridin und • E = 7-Benzylamino-4-(N-methyl-2'-hydroxyethylamino)-2-piperazino-pteridin auf ihre Hemmwirkung auf die Phosphodiesterase (PDE) von Tumorzellen und von Humanthrombozyten in vitro in Anlehnung an die von Pöch et al. beschriebenen Methode wie folgt untersucht (siehe Naunyn-Schmiedebergs Arch. Pharmak.
(§2) Die Phosphodiesterase wurde aus B16 Melanomgewebe von Mäusen durch Zentrifugation des Gewebehomogenates bei 5.000 x g (15 min. 4°C) gewonnen. Die Homogenisation der Gewebe erfolgte durch wiederholtes Frieren/Auftauen und Homogenisation nach Potter-Elvehjem bzw. durch Ultraschall. Der die PDE enthaltende Homogenat-Überstand wurde portioniert und bei -25°C tiefgefroren.
Die Gewinnung der Phosphordiesterase aus Humanthrombozyten erfolgte in gleicher Weise.
(§3) Die Bestimmung der PDE-Hemmung durch die Prüfsubstanzen erfolgte mit 1 µmol/l ^3H-cAMP als Substrat. Die PDE-Hemmung wurde durch Messung des Abbaus des eingesetzten Substrats ^3H-cAMP zu ^3H-AMP im Vergleich zur Kontrolle ohne Prüfsubstanz erfaßt.
(§4) Das gebildete ^3H-AMP wurde durch eine Zinksulfat-Bariumhydroxid-Fällung vom verbliebenen ^3H-CAMP abgetrennt.

[2] = target: Phosphodiesterase aus B16 Melanomgewebe von Mäusen; experiment: PDE inhibition (PDE assay), enzyme from B16 melanoma tissue, 3H-cAMP substrate; format: biochemical; conditions: PDE from mouse B16 melanoma tissue; 1 µmol/l 3H-cAMP as substrate; linear regression; read-out: PDE-Hemmung (IC50 in µmol/l) B16-Tumorzellen
From the text: as §1, §2, §3, §4

Mäusen = experiment: Orientating acute toxicity in mice, single oral dose; format: in vivo; conditions: observation time 14 days; for Orientierende aktute Toxizität (Tiere gestorben): single oral dose of 250 mg, animals dead of animals treated; for Orientierende aktute Toxizität: single oral dose
From the text: Die orientierende akute Toxizität der zu untersuchenden Substanzen wurde orientierend an Gruppen von je […] Mäusen nach oraler Gabe einer Einzeldosis bestimmt (Beobachtungszeit: 14 Tage) : […]

| Structure (SMILES) | IC50 [1] [µmol/L] | IC50 [2] [µmol/L] | Orientierende aktute Toxizität (Tiere gestorben) (Mäusen) [von 5] | Orientierende aktute Toxizität (Mäusen) [mg] |
| --- | --- | --- | --- | --- |
| c1ccc(-c2nc3c(N4CCOCC4)nc(N4CCNCC4)nc3nc2N2CCOCC2)cc1 [A, 4,7-Dimorpholino-6-phenyl-2-piperazino-pteridin] | 0.54 | 4.3 | 0 | > 250 |
| [O-][S+]1CCN(c2nc3nc(N4CCNCC4)nc(N4CCOCC4)c3nc2-c2ccccc2)CC1 [B, 4-Morpholino-7-(1-oxidothiomorpholino)-2-piperazino-6-phenyl-pteridin] | 2.2 | 3.1 |  |  |
| c1ccc(CNc2nc3nc(N4CCNCC4)nc(N4CCSCC4)c3nc2-c2ccccc2)cc1 [C, 7-Benzylamino-6-phenyl-2-piperazino-4-thiomorpholino-pteridin] | 0.5 | 0.096 | 0 | > 250 |
| CN(C)c1nc2nc(N3CCNCC3)nc(N3CCCC3)c2nc1-c1ccccc1 [D, 7-Dimethylamino-6-phenyl-2-piperazino-4-pyrrolidino-pteridin] | 3.6 | 0.78 | 0 | > 250 |
| CN(CCO)c1nc(N2CCNCC2)nc2nc(NCc3ccccc3)cnc12 [E, 7-Benzylamino-4-(N-methyl-2'-hydroxyethylamino)-2-piperazino-pteridin] | 3.7 | 8.3 | 0 | > 250 |

Source: EP0185259A2, “Pteridines, process for their preparation, and their use as intermediates or as medicaments” (Dr. Karl Thomae GmbH, priority 1984, dated 1986)
